Assay results as given in ChEMBL document CHEMBL1759976, “Carbonic anhydrase inhibitors. Inhibition of the β-class enzymes from the fungal pathogens Candida albicans and Cryptococcus neoformans with branched aliphatic/aromatic carboxylates and their derivatives” (Bioorg Med Chem Lett, 2011).

Key:
[1] = Inhibition of Candida albicans Nce103 beta-carbonic anhydrase by stopped flow CO2 hydration assay
[2] = Inhibition of Cryptococcus neoformans Can2 beta-carbonic anhydrase by stopped flow CO2 hydration assay
[3] = target: Carbonic anhydrase 2 (Homo sapiens, UniProt P00918)
[4] = target: Carbonic anhydrase 1 (Homo sapiens, UniProt P00915); assay: Inhibition of human cytosolic carbonic anhydrase 1 by stopped flow CO2 hydration assay
Sequence of Carbonic anhydrase 1 (P00915 whole entry): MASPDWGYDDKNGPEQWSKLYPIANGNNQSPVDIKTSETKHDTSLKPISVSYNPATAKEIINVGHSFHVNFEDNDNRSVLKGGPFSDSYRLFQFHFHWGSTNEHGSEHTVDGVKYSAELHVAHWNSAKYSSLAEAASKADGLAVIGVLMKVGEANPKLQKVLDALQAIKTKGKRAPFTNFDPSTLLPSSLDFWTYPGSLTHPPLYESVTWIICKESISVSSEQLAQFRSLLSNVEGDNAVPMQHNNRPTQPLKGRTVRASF

Row | Compound | Ki [1] [µM] | Ki [2] [µM] | Ki [3] [µM] | Ki [4] [µM]
1 | CCCCC(CC)C(N)=O (centres undefined) | 5.7 | 0.39 |  | 
2 | CCCC(C)C(=O)O (centres undefined) | 10.4 | 10.2 | 113 | 310
3 | COc1ccc(C(=O)NN)cc1 | 0.81 | 0.087 | 5.75 | 7.84
4 | CCC(C)CC(=O)O (centres undefined) | 11.1 | 34.9 | 281 | 104
5 | CC(C)CCC(=O)O | 2.14 |  |  | 
6 | CCCCC(C)C(=O)O (centres undefined) | 3.73 | 3.23 | 103 | 380
7 | CCC(C)CCC(=O)O (centres undefined) | 1.25 | 0.8 | 112 | 420
8 | CCCCC(CC)C(=O)O (centres undefined) | 43.1 | 0.95 | 93 | 450
9 | CCCCCC(C)C(=O)O (centres undefined) | 11.7 | 39.3 | 110 | 
10 | CCCCC(CC)CCC(=O)O (centres undefined) | 37.9 | 41.2 |  | 380
11 | CCCCCCC(CCCC)C(=O)O (centres undefined) | 10.7 |  |  | 101
12 | O=C(O)c1ccc(F)cc1 | 1.09 | 0.13 | 3.34 | 7.39
13 | O=C(O)c1ccc(I)cc1 | 5.17 | 5.46 |  | 
14 | O=C(O)c1ccc([N+](=O)[O-])cc1 | 4.85 | 0.12 | 8.56 | 8.8
15 | O=C(O)c1ccc(O)cc1 | 0.11 | 0.0095 |  | 7.61
16 | COc1ccc(C(=O)O)cc1 | 0.15 | 0.0099 | 8.03 | 9.06
17 | Nc1cccc(C(=O)O)c1 | 3.4 | 3.06 | 8.63 | 8.79
18 | N#Cc1ccc(C(=O)O)cc1 | 4.47 | 0.14 |  | 
19 | CC(=O)Nc1ccc(C(=O)[O-])cc1.[Na+] | 0.34 | 0.32 | 7.28 | 4.04
20 | O=C(O)c1ccc(CCl)cc1 | 4.71 | 3.65 |  | 

Row | Compound | Ki [1] [µM] | Ki [2] [µM] | Ki [3] [µM] | Ki [4] [µM]
21 | CN(C)c1ccc(C(=O)O)cc1 | 5.2 | 0.13 | 3.33 | 3.94
22 | O=C(O)c1ccc(S(=O)(=O)N(Cl)Cl)cc1 | 4.97 | 0.12 | 1.96 | 3.88
23 | CCCCC(CC)C(=O)OC (centres undefined) | 5.6 | 0.74 |  | 
24 | CCCCC(CC)C(=O)NO (centres undefined) | 3.05 | 0.29 |  | 
25 | CCCCC(CC)C(=O)NN (centres undefined) | 4.56 | 0.23 |  | 
26 | COc1ccc(C(=O)NO)cc1 | 0.47 | 0.071 |  | 
27 | COc1ccc(C(N)=O)cc1 | 0.54 | 0.062 | 2.18 | 4.34
28 | CCCCC(CC)C(=O)O (centres undefined) [2-ETHYLHEXANOIC ACID] |  |  | 93 | 450
29 | CC(=O)Nc1nnc(S(N)(=O)=O)s1 [ACETAZOLAMIDE] | 0.13 | 0.01 |  | 
30 | Nc1ccc(C(=O)O)cc1 [AMINOBENZOATE SODIUM] | 2.95 | 0.12 | 8.13 | 8.4
31 | COC(=O)c1ccc(OC)cc1 [METHYL 4-METHOXYBENZOATE] | 0.61 | 0.067 |  | 
32 | CC(=O)[O-].[Na+] [SODIUM ACETATE] |  |  |  | 10.8
33 | CCCC(=O)[O-].[Na+] [SODIUM BUTYRATE] |  |  |  | 511
34 | O=C[O-].[Na+] [SODIUM FORMATE] |  |  |  | 1040
35 | CC(C)C(=O)[O-].[Na+] [SODIUM ISOBUTYRATE] | 0.98 | 3.81 | 350 | 120
36 | CC(C)CC(=O)O [SODIUM ISOVALERATE] | 0.95 | 0.91 | 100 | 300
37 | CCC(=O)[O-].[Na+] [SODIUM PROPIONATE] |  |  |  | 1010
38 | CCCCC(=O)[O-].[Na+] [SODIUM VALERATE] |  |  |  | 55.3
39 | COc1ccc(C(=O)O)cc1 [p-ANISIC ACID] |  |  | 8.03 | 9.06
